Results: the supplement of paper PMC11208160

Assay: recombinant UMI read abundance after kanamycin selection (control-corrected) (log10(CPM+1)); higher = more efficient recombination; extreme values may be limits of the assay; sequences stand for … in AGTGCAGAGAAAATCGGCCAGTTTTCTCTGCCTGCAGTCCGCATGCCGTGGGACCCCTTGGGTTCTAACCTGTTGCCTAGATTTATGCAGCGGACTGCCTTTCTCCCAAAGTGATAAACCGG…AGGTTGGTTTCACT; site = the 11-nt donor
Outline: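 Values are reported as log10(CPM+1), obtained by converting sequencing counts to CPM, averaging replicates and scaling by control-derived factors. The counts came from recombinant UMIs amplified by PCR across the donor–target junction. These UMIs came from a pooled Escherichia coli screen of donor and donor-binding-loop pairs for the IS621 bridge recombinase, plated with IPTG (0.07 mM) plus kanamycin or left unselected, in two replicates each.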
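Also: IS621 bridge recombinase in Escherichia coli cells against a fixed T5 target plasmid.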

In order of rising “recombinant UMI read abundance (log10)” value:
1. GATGATTCATGGACCGGTTTTCCCGGTAATCCGTATTTGTT (site GACGATTCTAA)  0
2. GATGATTCATGGACCGGTTTTCCCGGTAATCCGTATTTGTT (site GAGGATTCTAA)  0
3. GATTACCCATGGACCGGTTTTCCCGGTAATCCGTATTTGCT (site GATTAACCTAG)  0
4. GATTACCCATGGACCGGTTTTCCCGGTAATCCGTATTTGCT (site GATTACCCTAG)  0
5. GATTACCCATGGACCGGTTTTCCCGGTAATCCGTATTTGCT (site GATTAGCCTAG)  0
6. GATTACCCATGGACCGGTTTTCCCGGTAATCCGTATTTGCT (site GATTATCCTAG)  0
7. GATTATCCATGGACCGGTTTTCCCGGTAATCCGTATTTGCT (site AATTATCCTAG)  0
8. GATTATCCATGGACCGGTTTTCCCGGTAATCCGTATTTGCT (site GAATATCCTAG)  0
9. GATTATCCATGGACCGGTTTTCCCGGTAATCCGTATTTGCT (site GACTATCCTAG)  0
10. GATTATCCATGGACCGGTTTTCCCGGTAATCCGTATTTGCT (site GAGTATCCTAG)  0
11. GATTATCCATGGACCGGTTTTCCCGGTAATCCGTATTTGCT (site GATAATCCTAG)  0
12. GATTATCCATGGACCGGTTTTCCCGGTAATCCGTATTTGCT (site GATGATCCTAG)  0
13. GATTATCCATGGACCGGTTTTCCCGGTAATCCGTATTTGCT (site GATTAACCTAG)  0
14. GATTATCCATGGACCGGTTTTCCCGGTAATCCGTATTTGCT (site GATTACCCTAG)  0
15. GATTATCCATGGACCGGTTTTCCCGGTAATCCGTATTTGCT (site GATTATACTAG)  0
16. GATTATCCATGGACCGGTTTTCCCGGTAATCCGTATTTGCT (site GATTATCCTAG)  0
17. GATTATCCATGGACCGGTTTTCCCGGTAATCCGTATTTGCT (site GATTATCCTCG)  0
18. GATTATCCATGGACCGGTTTTCCCGGTAATCCGTATTTGCT (site GATTATCCTGG)  0
19. GATTATCCATGGACCGGTTTTCCCGGTAATCCGTATTTGCT (site GATTATCCTTG)  0
20. GATTATCCATGGACCGGTTTTCCCGGTAATCCGTATTTGCT (site GATTATGCTAG)  0
21. GATTATCCATGGACCGGTTTTCCCGGTAATCCGTATTTGCT (site GATTATTCTAG)  0
22. GATTATCCATGGACCGGTTTTCCCGGTAATCCGTATTTGCT (site GATTCTCCTAG)  0
23. GATTATCCATGGACCGGTTTTCCCGGTAATCCGTATTTGCT (site GATTGTCCTAG)  0
24. GATTATCCATGGACCGGTTTTCCCGGTAATCCGTATTTGCT (site GATTTTCCTAG)  0
25. GATTATCCATGGACCGGTTTTCCCGGTAATCCGTATTTGCT (site GCTTATCCTAG)  0
26. GATTATCCATGGACCGGTTTTCCCGGTAATCCGTATTTGCT (site GGTTATCCTAG)  0
27. GATTATCCATGGACCGGTTTTCCCGGTAATCCGTATTTGCT (site GTTTATCCTAG)  0
28. GATTATCCATGGACCGGTTTTCCCGGTAATCCGTATTTGCT (site TATTATCCTAG)  0
29. GATTATGCATGGACCGGTTTTCCCGGTAATCCGTATTTGCT (site GATTATTCTAG)  0
30. GATTCGACATGGACCGGTTTTCCCGGTAATCCGTATTTGAC (site GATTAGACTGT)  0
31. GATTCGACATGGACCGGTTTTCCCGGTAATCCGTATTTGAC (site GATTGGACTGT)  0
32. GATTCGACATGGACCGGTTTTCCCGGTAATCCGTATTTGAC (site GATTTGACTGT)  0
33. GATTGCACATGGACCGGTTTTCCCGGTAATCCGTATTTGAC (site GATTGAACTGT)  0
34. GATTGCACATGGACCGGTTTTCCCGGTAATCCGTATTTGAC (site GATTGGACTGT)  0
35. GATTGCACATGGACCGGTTTTCCCGGTAATCCGTATTTGAC (site GATTGTACTGT)  0
36. GATTGCCCATGGACCGGTTTTCCCGGTAATCCGTATTTGAT (site GATTGCCCTAT)  0
37. GATTGGACATGGACCGGTTTTCCCGGTAATCCGTATTTGAA (site GATTGGACTGT)  0
38. GATTGGACATGGACCGGTTTTCCCGGTAATCCGTATTTGAC (site GACTGGACTGT)  0
39. GATTATCCATGGACCGGTTTTCCCGGTAATCCGTATTTGCT (site GATTATCCTAA)  0.00555
40. GATTGCCCATGGACCGGTTTTCCCGGTAATCCGTATTTGAT (site GGTTGCCCTAT)  0.00714
41. GATTGCCCATGGACCGGTTTTCCCGGTAATCCGTATTTGAT (site GTTTGCCCTAT)  0.00814
42. GATTGCCCATGGACCGGTTTTCCCGGTAATCCGTATTTGAT (site GCTTGCCCTAT)  0.0105
43. GATTGGACATGGACCGGTTTTCCCGGTAATCCGTATTTGAA (site GATTGGACTAT)  0.0122
44. GATTCACCATGGACCGGTTTTCCCGGTAATCCGTATTTGTT (site GATTCACCTAA)  0.0124
45. GATTGGACATGGACCGGTTTTCCCGGTAATCCGTATTTGAA (site GATTGGACTCT)  0.0133
46. GATTATCCATGGACCGGTTTTCCCGGTAATCCGTATTTGCT (site GATTATCCTAT)  0.0146
47. GATTATCCATGGACCGGTTTTCCCGGTAATCCGTATTTGCT (site GATTATCCTAC)  0.0217
48. GATTACCCATGGACCGGTTTTCCCGGTAATCCGTATTTGAG (site GATTACCCTCT)  0.03
49. GATTGGACATGGACCGGTTTTCCCGGTAATCCGTATTTGAC (site CATTGGACTGT)  0.263
50. GATTATGCATGGACCGGTTTTCCCGGTAATCCGTATTTGCT (site GATTATCCTAG)  0.309
51. GATTATCCATGGACCGGTTTTCCCGGTAATCCGTATTTGCT (site GATTAGCCTAG)  0.351
52. GATTGGACATGGACCGGTTTTCCCGGTAATCCGTATTTGAA (site GATTGGACTTT)  0.419
53. GATTATCCATGGACCGGTTTTCCCGGTAATCCGTATTTGCT (site CATTATCCTAG)  0.436
54. GATTGGACATGGACCGGTTTTCCCGGTAATCCGTATTTGAC (site AATTGGACTGT)  0.543
55. GATGTGTCATGGACCGGTTTTCCCGGTAATCCGTATTTGAC (site TATGTGTCTGT)  0.677
56. GATGTGTCATGGACCGGTTTTCCCGGTAATCCGTATTTGAC (site CATGTGTCTGT)  0.736
57. GATTATCCATGGACCGGTTTTCCCGGTAATCCGTATTTGCT (site GATCATCCTAG)  0.81
58. GATGCCTCATGGACCGGTTTTCCCGGTAATCCGTATTTGTT (site GATGCCTCTAA)  0.895
59. GATTGGACATGGACCGGTTTTCCCGGTAATCCGTATTTGAC (site GAATGGACTGT)  1.41
60. GATTGCACATGGACCGGTTTTCCCGGTAATCCGTATTTGAC (site GATTGCACTGT)  1.53
61. GATTATGCATGGACCGGTTTTCCCGGTAATCCGTATTTGCT (site GATTATACTAG)  1.54
62. GATGGTTCATGGACCGGTTTTCCCGGTAATCCGTATTTGAT (site GATGGTTCTAT)  1.58
63. GATGTGTCATGGACCGGTTTTCCCGGTAATCCGTATTTGAC (site AATGTGTCTGT)  1.67
64. GATGATTCATGGACCGGTTTTCCCGGTAATCCGTATTTGTT (site GATGATTCTAA)  1.79
65. GATTCGACATGGACCGGTTTTCCCGGTAATCCGTATTTGAC (site GATTCGACTGT)  2.01
66. GATTATGCATGGACCGGTTTTCCCGGTAATCCGTATTTGCT (site GATTATGCTAG)  2.13
67. GATGTGTCATGGACCGGTTTTCCCGGTAATCCGTATTTGAC (site GATGTGTCTGT)  2.61
68. GATGGCTCATGGACCGGTTTTCCCGGTAATCCGTATTTGCC (site GATGGCTCTGG)  2.65
